The test deals with Ubiquitin carboxyl-terminal hydrolase 30 (Homo sapiens) (UniProt Q70CQ3). Put plainly: ubiquitin-specific protease 30 DUB inhibitors, concentration-effect, biochemical, validation of primary actives (AID 1645865). As to conditions: purified USP30, Ub-rhodamine cleavage, fluorescence, 2 h.

The structures appear in SMILES notation. Activity calls are given as the source filed them.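 The calls were made as follows: active = maximal inhibition of the USP30 enzyme reaching 30% or more across the dose series; inactive = the rest.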

Sequence of Ubiquitin carboxyl-terminal hydrolase 30 (Homo sapiens) (Q70CQ3 whole entry, looked up): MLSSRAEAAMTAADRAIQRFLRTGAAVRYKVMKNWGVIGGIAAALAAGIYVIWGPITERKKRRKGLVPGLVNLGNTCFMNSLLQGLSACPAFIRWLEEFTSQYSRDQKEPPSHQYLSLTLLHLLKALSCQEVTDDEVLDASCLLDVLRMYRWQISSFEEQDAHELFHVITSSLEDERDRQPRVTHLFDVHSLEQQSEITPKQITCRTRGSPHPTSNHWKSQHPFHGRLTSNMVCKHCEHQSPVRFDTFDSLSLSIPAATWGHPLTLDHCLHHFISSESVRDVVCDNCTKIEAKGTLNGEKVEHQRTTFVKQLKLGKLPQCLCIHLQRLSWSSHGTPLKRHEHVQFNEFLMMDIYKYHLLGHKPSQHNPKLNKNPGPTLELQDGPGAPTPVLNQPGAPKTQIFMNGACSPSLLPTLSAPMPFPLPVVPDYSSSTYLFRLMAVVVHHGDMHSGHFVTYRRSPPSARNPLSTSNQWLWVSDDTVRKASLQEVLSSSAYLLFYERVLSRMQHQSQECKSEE

One may read the IC50 as the concentration needed to halve the response being measured. In the case of `COc1cc2c(oc(=O)c3cc(C)cc(OC)c32)c2c([C@@H]3OC(C)[C@@H](O)[C@@](C)(O)C3O)ccc(O)c12` (some centres not stated), the IC50 was > 50 µM (inactive).

For the compound `O=C(Nc1cccc2ccccc12)N1CCC(c2nc3c(nnn3Cc3ccc(F)cc3)c(=O)[nH]2)CC1`, the IC50 is 33.9 µM.

Turning to `O=C(NC1CCCC1)C1CC(=O)N(c2cccc(-c3noc(-c4cccs4)n3)c2)C1` (configuration not stated), the IC50 was > 50 µM (inactive).

Take `C/C=C1/C2=CCCN3C(=O)O[C@H]([C@H]1O)[C@H]23`: the IC50 is > 50 µM (inactive).

On to `Cc1nnc(C(=O)Nc2ccc(C(=O)NCc3ccccc3C)cc2)s1`, for which the IC50 was 26.8 µM.

In the case of `COc1cc(Cl)c(C)cc1NC(=O)Cn1c(=O)n(CC(=O)NCc2ccco2)c(=O)c2ccccc21`, the 50% inhibitory concentration (IC50) was 1.34 µM.

Regarding `N#Cc1ccccc1Cn1c(=O)n(CCCCC(=O)NCCc2ccccc2)c(=O)c2ccccc21`, the IC50 is 14.4 µM.

Take `Cc1nc(-c2ccccn2)sc1C(=O)Nc1ccc(C#N)cc1`: the IC50 is > 50 µM (inactive).

As for `COc1cccc(-n2ccc(=O)c(-c3nc(-c4ccccc4Cl)no3)n2)c1`, the IC50 is > 50 µM (inactive).

As for `Cc1cccc(NC(=O)CSc2nnc(-c3n[nH]c4c3CCC4)n2N)c1`, the IC50 is 25.6 µM.

With `Cc1cc(-c2nnc(SCC(=O)Nc3ccc(Br)c(C)c3)n2N)n[nH]1`, the IC50 was 16.1 µM.

In the case of `COc1ccc(NC(=O)C2CCN(c3cncnc3N(C)C)CC2)cc1OC`, the IC50 is > 50 µM (inactive).

As to `CC(C)CC[C@H]1O[C@@H](CC(=O)O)Cc2cc3c(c(O)c21)C(=O)c1sc(=O)n(C)c1C3=O`, the IC50 is > 50 µM (inactive).

Take `C/C=C(\Cl)C1=CC(=O)[C@]23C[C@H]2[C@@]2(C)CO[C@@]1(O)[C@@]3(O)O2`: the IC50 was > 50 µM (inactive).

Take `O=C(/C=C/c1ccc(F)cc1)N1CCC(Cc2ccccc2)CC1`: the IC50 was 41.9 µM.

With `Oc1ccc(-c2nc3cnccn3c2NCCc2ccccc2)c(O)c1`, the IC50 is > 50 µM (inactive).

Turning to `COc1ccc(NC(=O)CSc2nnc(Cc3cccc4ccccc34)n2C)cc1`, the IC50 is > 50 µM (inactive).

`COc1ccc(C(=O)Nc2n[nH]c(C)c2-c2cccc(C)c2)c(OC)c1`: the 50% inhibitory concentration (IC50) is 2.31 µM.

Consider `FC(F)(F)c1ccccc1CCN1CCc2nc3ccc(Cl)cc3cc2C1`, for which the IC50 is > 50 µM (inactive).

In the case of `O=C(NCc1cccnc1)C1CCN(c2cnc(N3CCCCCC3)nc2)CC1`, the IC50 is > 50 µM (inactive).

As for `Cc1ccc(CSC2=NS(=O)(=O)c3ccccc3N2)cc1`, the IC50 is > 50 µM (inactive).

With `Cc1cc(Cl)c2c(c1)[C@]1(C(=O)N2)N2CCC[C@H]2[C@@H](C(=O)c2cc3ccccc3o2)[C@]12C(=O)Nc1ccccc12`, the IC50 was > 50 µM (inactive).

Consider `CCn1c(Cn2cccn2)nc2cc(NC(=O)c3ccc(F)cc3)ccc21`, for which the IC50 is > 50 µM (inactive).

As for `CCCC[C@@H](C)/C=C(C)/C=C(\C)C(=O)NC1=C[C@](O)(/C=C/C=C/C=C/C(=O)NC2=C(O)CCC2=O)[C@@H]2O[C@@H]2C1=O`, the IC50 was 4.76 µM.

Regarding `O=C(Nc1cccc2ccccc12)C1CCCN(S(=O)(=O)Cc2ccccc2)C1` (configuration not stated), the IC50 is 4.36 µM.

Regarding `CC(C)CCN1C(=O)C2C(C(=O)Nc3ccc(Oc4ccccc4)cc3)C3C=CC2(O3)C1C(=O)NC1CCCCC1` (configuration not stated), the IC50 is 32.5 µM.

As to `Cc1ccc(Nc2nc(Nc3cccc(F)c3)nc3nccnc23)c(C)c1`, the IC50 is > 50 µM (inactive).

On to `CC(C)CCCCCCCCCCC(=O)N(C)[C@H](CO)C(=O)N[C@H](C)C(=O)NCC(=O)N(C)C1C(=O)N[C@@H](C)C(=O)NC(C(=O)O)Cc2ccc(O)c(c2)-c2cc1ccc2O` (some centres not stated), for which the IC50 is > 50 µM (inactive).

As to `COc1ccc(OC)c2c(C)cc(N3CCN(S(=O)(=O)c4ccc5c(c4)CCCN5S(C)(=O)=O)CC3)nc12`, the IC50 was 20.9 µM.

As to `CCC(=O)Nc1ccccc1-c1nc2ccccc2n(CC(=O)Nc2cc(OC)ccc2OC)c1=O`, the IC50 is 18.1 µM.

`Cn1c2ccccc2c(=O)c2c(=O)n(Cc3ccccc3)c(-c3ccccc3F)nc21`: the IC50 is 0.111 µM.

Consider `O=C1C[C@@H]2O[C@H](CNC(=O)[C@@H]3CN(CCN3C(=O)C3CCOCC3)C(=O)[C@@H]3C[C@@H](CN3Cc3ccc(F)c(F)c3)N1)[C@@H](O)[C@H]2O`, for which the IC50 is > 50 µM (inactive).

On to `O=c1[nH]cccc1NS(=O)(=O)c1ccc(F)cc1`, for which the IC50 is > 50 µM (inactive).

Regarding `COc1ccc(S(=O)(=O)N2CCN3Cc4ccccc4N(C)CC3C2)cc1` (configuration not stated), the IC50 is > 50 µM (inactive).

In the case of `Cc1cc(C(F)(F)F)n(-c2ccc(NC(=O)Nc3cccc(C(F)(F)F)c3)cc2)n1`, the IC50 was 8.68 µM.

Consider `O=C(c1ccc(COc2cccc3ccccc23)o1)N1CCC(Cc2ccccc2)CC1`, for which the IC50 was > 50 µM (inactive).

In the case of `CNC(=O)CC1NC(=O)c2csc(n2)-c2ccc(-c3nc(C4=NC(C(=O)N5CCCC5C(N)=O)CO4)cs3)nc2-c2csc(n2)-c2csc(n2)C(C(O)c2ccccc2)NC(=O)CNC(=O)c2nc(sc2COC)C(C(C)C)NC(=O)c2nc1sc2C` (configuration not stated), the IC50 is > 50 µM (inactive).

On to `Cc1cc(O)c(Oc2cc(C)cc(O)c2O)c(O)c1`, for which the IC50 is 33.1 µM.

For the compound `Cc1ccc(NC(=O)c2ccn(COc3ccc(F)cc3)n2)nc1`, the IC50 was 24.8 µM.

As for `COc1ccc(-c2cc3c(=O)n(CC(=O)Nc4ccccc4Cl)ccn3n2)cc1`, the IC50 is 4.23 µM.

As to `O=c1ccc(-c2noc(-c3ccc4cc[nH]c4c3)n2)c[nH]1`, the IC50 is > 50 µM (inactive).

Turning to `O=S(=O)(c1ccccc1Cl)N1CCN(c2ccc3nnc(-c4ccco4)n3n2)CC1`, the IC50 is > 50 µM (inactive).

Consider `CC1CCc2sc(NC(=O)c3ccccc3Oc3ccccc3)c(C(N)=O)c2C1` (configuration not stated), for which the IC50 is 3.28 µM.

Regarding `COc1ccc2c(c1)CCc1c-2n[nH]c1C(=O)Nc1cc(C)on1`, the IC50 was 4.04 µM.

As for `Cc1ccc(Cl)cc1NC(=O)COC(=O)c1ccc2ccccc2n1`, the IC50 was > 50 µM (inactive).

In the case of `COCC(=O)Nc1cc(F)c2nc(N3CCOCC3)ccc2c1`, the IC50 was > 50 µM (inactive).

Turning to `COc1ccc(NC(=O)C2CC(=O)Nc3c(-c4ccc(Cl)cc4)cnn32)c(OC)c1` (configuration not stated), the IC50 was 8.18 µM.

Take `COc1ccccc1CNC(=O)c1ccc(CSc2nc3ccncc3n2Cc2ccccc2)cc1`: the IC50 was 44.9 µM.

With `Cn1nc(-c2nc(-c3ccccc3)no2)c2c1CCN(C(=O)C1CC1)C2`, the IC50 is > 50 µM (inactive).

For the compound `CN1CC2CN(C(=O)Nc3cccnc3)CCN2Cc2ccccc21` (configuration not stated), the IC50 was > 50 µM (inactive).

In the case of `O=C(Nc1ccc2c(c1)OCCO2)c1ccc(N2CCCC2=O)cc1`, the IC50 is 42.4 µM.

Turning to `CC[C@H](C)[C@H](NC(=O)[C@H]([C@@H](C)CC)N(C)C(C)=O)C(=O)N[C@H](C(=O)N[C@@H](CC(C)C)C(=O)C1(C)CO1)[C@@H](C)O` (some centres not stated), the IC50 was > 50 µM (inactive).

`CC1CC(=O)Nc2ccccc2N1S(=O)(=O)c1ccc(C#N)cc1` (configuration not stated): the IC50 was > 50 µM (inactive).

Consider `O=C(Cn1c(=O)c2sccc2n(Cc2ccc([N+](=O)[O-])cc2)c1=O)NCCc1ccccc1`, for which the IC50 is 21.7 µM.

Consider `COc1ccccc1CC(=O)Nc1nc2ccccc2[nH]1`, for which the IC50 was 28.4 µM.

In the case of `O=C(Nc1ccc2c(c1)OCCO2)c1ccc(N2CCCCC2)nn1`, the IC50 was > 50 µM (inactive).

For `CC(Nc1ncnc2c1sc1nc(N3CCOCC3)c3c(c12)CCC3)c1ccccc1` (configuration not stated), the IC50 was 3.65 µM.

Regarding `COc1ccc(/C=C\c2nccc3c2[nH]c2ccccc23)cc1`, the IC50 is > 50 µM (inactive).

`COc1cccc(/C=C/C(=O)Nc2ccc(N3CCOCC3)cc2)c1OC`: the IC50 is > 50 µM (inactive).

`CC(=O)N1CCc2cc(CNC(=O)Nc3cc(C)ccc3C)ccc21`: the IC50 was > 50 µM (inactive).

With `O=c1c(Nc2cccc(F)c2)nc2ccncc2n1Cc1ccccc1`, the IC50 was 26.4 µM.

On to `c1csc(CCN2CCc3nc4cccnc4cc3C2)c1`, for which the IC50 is > 50 µM (inactive).

As for `Cc1noc(C)c1CN1CC[C@H]2O[C@H](C(=O)NCc3ccco3)CC[C@H]21`, the IC50 is > 50 µM (inactive).

As for `COc1cccc(-n2c(=O)[nH]c3c(C(N)=O)nc(-c4ccc(OCc5ccccc5)cc4)nc32)c1`, the IC50 was > 50 µM (inactive).

In the case of `Cn1c(=O)[nH]c(=O)c2c1nc1n(CCc3ccccc3)c(-c3ccccc3)cn21`, the IC50 is 37.5 µM.

With `N#Cc1ccc(NC(=O)COC(=O)c2ccc3ccccc3n2)cc1`, the IC50 was > 50 µM (inactive).

As for `O=C(NCc1ccccc1Cl)c1ccc2cn[nH]c2c1`, the IC50 was > 50 µM (inactive).

Turning to `COc1cccc(CNC(=O)c2ccc3c(c2)NC(=O)C2CCCN32)c1OC` (configuration not stated), the IC50 was > 50 µM (inactive).

For `CC(C)N1C[C@@H]2C[C@H](NS(=O)(=O)c3cccc(C#N)c3)CN2Cc2ccccc21`, the IC50 is > 50 µM (inactive).

Take `O=C(CN1CCCc2ccccc21)Nc1ccc(N2CCOCC2)cc1`: the IC50 was > 50 µM (inactive).

With `O=C(COc1cccc2ccc(N3CCC(Cc4ccccc4)CC3)nc12)NCc1ccc(F)cc1`, the IC50 is 23.1 µM.

Turning to `COc1ccc2c(C)c(CC(=O)N3CCC[C@H]3C(=O)O)c(=O)oc2c1C`, the IC50 is 45 µM.

As to `Cc1cnnn1-c1ccc(C(=O)Nc2ccc(Cl)cc2)cc1`, the IC50 is 29.5 µM.

Consider `C=C1CCC2[C@](C)(CCC[C@]2(C)C(=O)OC)[C@H]1CCc1ccoc1CNC(C)C` (some centres not stated), for which the IC50 is > 50 µM (inactive).

`COc1ccc(C2CC(c3ccccc3)N(C(=O)C3CC3)c3ncnn32)cc1` (configuration not stated): the IC50 is > 50 µM (inactive).

For `Cc1ccc(NC(=O)c2ccc(Nc3nnc(C)c4ccccc34)cc2)cc1`, the IC50 is 43.2 µM.

For the compound `CCCCc1nc2sc3c(NCCN4CCOCC4)ncnc3c2c2c1CCC2`, the IC50 is > 50 µM (inactive).

As for `Cc1c(C)n(-c2ccccc2)c2ncn(CC(=O)NC(C)c3ccccc3)c(=O)c12` (configuration not stated), the IC50 was 23 µM.

For `Cc1ccc(C)c(-n2c(N)c(C(=O)NCCc3ccccc3)c3nc4ccccc4nc32)c1`, the IC50 is > 50 µM (inactive).

For the compound `CC(C(=O)NCCc1ccccc1)n1nc(-c2ccccc2)c2cc(Cl)ccc21` (configuration not stated), the IC50 was 25.4 µM.

Consider `Cc1cc(C(=O)Nc2cc(C)n(Cc3ccc(Cl)cc3)n2)no1`, for which the IC50 is > 50 µM (inactive).

Regarding `CCCOc1ccc(C(=O)Nc2ccc(S(=O)(=O)Nc3cc(C)nc(C)n3)cc2)cc1`, the IC50 was > 50 µM (inactive).
